Results from paper PMC5706701, “Development of a homogenous high-throughput assay for inositol hexakisphosphate kinase 1 activity” (PLoS ONE, 2017).
Where a name gives a salt, the structure may show the parent alone. Read-outs that look alike come from different tables or passages of the source.

Target: T1, Human IP6K1 (Homo sapiens, UniProt Q92551)
T1 construct: GST (N, cleaved yes); made in house; host or cells: C43 E. coli, pGEX-6P-2
Assay: IP6K1 high-throughput screen of the Sigma LOPAC (ADP-Glo Max, single point);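 also: final compound concentration 10µM in 5% DMSO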
Type: biochemical

[1] = LOPAC single-point screen, ADP-Glo Max raw signal per well
[2] = LOPAC single-point screen, Z-score against plate average and StDev
[3] = LOPAC single-point screen, Z-score from raw signal with plate average and StDev
[4] = LOPAC single-point screen, ADP-Glo Max luminescence raw signal per well
[5] = LOPAC single-point screen, Z-score relative to plate average and StDev
[6] = LOPAC single-point screen, Z-score from plate average and StDev
[7] = Sigma LOPAC single-point screen, ADP-Glo Max raw signal per well
[8] = Sigma LOPAC single-point screen, Z-score from plate average and StDev

T1 sequence (Q92551 whole entry): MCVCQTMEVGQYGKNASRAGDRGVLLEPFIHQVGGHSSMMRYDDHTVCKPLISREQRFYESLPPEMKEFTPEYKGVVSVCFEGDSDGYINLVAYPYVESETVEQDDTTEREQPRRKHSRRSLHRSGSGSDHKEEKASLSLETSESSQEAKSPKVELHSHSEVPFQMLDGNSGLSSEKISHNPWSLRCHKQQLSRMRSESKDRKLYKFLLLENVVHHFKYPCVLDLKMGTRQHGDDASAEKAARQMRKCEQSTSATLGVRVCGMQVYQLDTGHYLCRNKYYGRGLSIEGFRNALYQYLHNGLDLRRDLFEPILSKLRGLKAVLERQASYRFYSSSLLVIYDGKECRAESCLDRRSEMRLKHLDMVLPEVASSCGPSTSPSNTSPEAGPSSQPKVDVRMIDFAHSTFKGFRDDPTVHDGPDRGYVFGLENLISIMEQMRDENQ

With `O=P(O)(O)C(Cl)(Cl)P(=O)(O)O` [Clodronic acid] the “Raw Signal” value [1] was 56368 and the Z-score [2] was 0.2439.
With `OCc1ccc(-c2nn(Cc3ccccc3)c3ccccc23)o1` [YC-1] the “Raw Signal” value [1] was 55059 and the Z-score [3] was -0.1874.
For `NNc1nncc2ccccc12` [Hydralazine hydrochloride], the “Raw Signal” value [1] was 53853 and the Z-score [3] was -0.2669.
With `Cc1ccc(C(=O)Nc2ccc(S(=O)(=O)O)c3cc(S(=O)(=O)O)cc(S(=O)(=O)O)c23)cc1NC(=O)c1cccc(NC(=O)Nc2cccc(C(=O)Nc3cc(C(=O)Nc4ccc(S(=O)(=O)O)c5cc(S(=O)(=O)O)cc(S(=O)(=O)O)c45)ccc3C)c2)c1` [Suramin hexasodium] the “Raw Signal” value [4] was 10286 and the Z-score [5] was -8.886.
With `CC(C)NCC(O)c1cc(O)cc(O)c1.CC(C)NCC(O)c1cc(O)cc(O)c1.O=S(=O)(O)O` (centres unmarked) [Metaproterenol hemisulfate] the “Raw Signal” value [1] was 55094 and the Z-score [2] was 0.1177.
For `OCCN1CCN(CC/C=C2/c3ccccc3Sc3ccc(C(F)(F)F)cc32)CC1` [cis-(Z)-Flupenthixol dihydrochloride], the “Raw Signal” value [1] was 56412 and the Z-score [2] was 0.2528.
In the case of `CCCCNc1ccc(C(=O)OCCN(C)C)cc1` [Tetracaine hydrochloride], the “Raw Signal” value [1] is reported as 56522 and the Z-score [2] is reported as 0.09679.
With `COc1ccc2[nH]cc(CCNC(C)=O)c2c1` [Melatonin] the “Raw Signal” value [1] was 53452 and the Z-score [3] was -0.1582.
`NC(=O)c1ncn([C@@H]2O[C@H](CO)[C@@H](O)[C@H]2O)c1O` [Mizoribine] was tested, and the “Raw Signal” value [4] was 51474 and the Z-score [5] was -0.4906.
For `CCCOc1ccccc1-c1nc2nn[nH]c2c(=O)[nH]1` [Zaprinast], the “Raw Signal” value [1] was 56198 and the Z-score [2] was 0.03384.
In the case of `CCCn1c(=O)c2[nH]c(-c3ccc(OCC(=O)Nc4ccc(C#N)cc4)cc3)nc2n(CCC)c1=O` [MRS 1754], the “Raw Signal” value [4] is reported as 66198 and the Z-score [6] is reported as 1.983.
With `COc1cc2nc(N3CCN(C(=O)OCc4ccccc4)[C@H](C(=O)NC(C)(C)C)C3)nc(N)c2cc1OC` [L-765,314] the Z-score [3] was -0.2706.
In the case of `N#CC(C#N)=Cc1ccc([N+](=O)[O-])c(O)c1` [Tyrphostin AG 126], the “Raw Signal” value [4] is reported as 65028 and the Z-score [6] is reported as 1.749.
With `CC1CCN(CC[C@H]2CCCN2S(=O)(=O)c2cccc(O)c2)CC1.Cl` [SB 269970 hydrochloride] the “Raw Signal” value [1] was 57058 and the Z-score [2] was 0.2009.
With `Cl.NCCC[C@](N)(C(=O)O)C(F)F` (racemic) the “Raw Signal” value [4] was 51967 and the Z-score [5] was -0.6499.
In the case of `CC(CCc1ccccc1)NCC(O)c1ccc(O)c(C(N)=O)c1` (centres unmarked) [Labetalol hydrochloride], the “Raw Signal” value [1] is reported as 53329 and the Z-score [3] is reported as -0.1789.
`O=C(O)CCCCCCCC(=O)O` [Azelaic acid] was tested, and the “Raw Signal” value [7] was 63677 and the Z-score [8] was 1.015.
For `N=c1ccn2c(n1)O[C@H]1[C@H](O)[C@@H](CO)O[C@H]12` [Ancitabine hydrochloride], the “Raw Signal” value [1] was 57428 and the Z-score [2] was -0.08544.
In the case of `COc1ccc(OC)c(C(O)C(C)N)c1` (centres unmarked) [Methoxamine hydrochloride], the “Raw Signal” value [7] is reported as 57572 and the Z-score [8] is reported as 0.5341.
`CCCN1CCc2cccc3c2[C@H]1Cc1ccc(O)c(O)c1-3.Cl` [R(-)-Propylnorapomorphine hydrochloride] was tested, and the “Raw Signal” value [4] was 49804 and the Z-score [5] was -1.089.
With `CC(C)(Sc1ccc(CCN(CCCCC2CCCCC2)C(=O)NC2CCCCC2)cc1)C(=O)O` [GW7647] the “Raw Signal” value [4] was 52814 and the Z-score [5] was -0.4779.
With `CC(C(O)c1ccc(O)cc1)N1CCC(Cc2ccccc2)CC1.CC(C(O)c1ccc(O)cc1)N1CCC(Cc2ccccc2)CC1.O=C(O)C(O)C(O)C(=O)O` (centres unmarked) [Ifenprodil tartrate] the “Raw Signal” value [1] was 56294 and the Z-score [2] was 0.3193.
`O=C(c1ccc2c(c1)OCCO2)N1CCCCC1` [CX 546] was tested, and the “Raw Signal” value [7] was 57767 and the Z-score [8] was 0.528.
In the case of `CC[C@@H](CO)NC(=O)[C@@H]1C=C2c3cccc4[nH]cc(c34)C[C@H]2N(C)C1` [Methylergonovine maleate], the “Raw Signal” value [7] is reported as 56663 and the Z-score [8] is reported as 0.3813.
`O=C(CCc1ccc(O)cc1)c1c(O)cc(O)cc1O` [Phloretin] was tested, and the “Raw Signal” value [7] was 58655 and the Z-score [8] was 0.5112.
`CC1=C[C@@H]2c3cccc4[nH]cc(c34)C[C@H]2N(C)C1` [Agroclavine] was tested, and the “Raw Signal” value [4] was 53866 and the Z-score [5] was -0.7128.
In the case of `CC(C)c1cccc(C(C)C)c1O` [Propofol], the “Raw Signal” value is reported as 48098 and the Z-score is reported as -1.436.
In the case of `Nc1c[n+](N2CCOCC2)no1.[Cl-]` [3-Morpholinosydnonimine hydrochloride], the “Raw Signal” value [1] is reported as 53200 and the Z-score [3] is reported as -0.2005.
With `Br.CCCN(CCC)C1CCc2cccc(O)c2C1` (racemic) [(±)-8-Hydroxy-DPAT hydrobromide] the “Raw Signal” value [1] was 55597 and the Z-score [2] was 0.08732.
In the case of `CCCCOC(=O)NS(=O)(=O)c1sc(CC(C)C)cc1-c1ccc(Cn2c(CC)nc3c(C)cc(C)nc32)cc1` [L-162,313], the “Raw Signal” value [1] is reported as 54291 and the Z-score [2] is reported as -0.01722.
For `Cl.NCCCCC(=O)O` [5-Aminovaleric acid hydrochloride], the “Raw Signal” value [1] was 58378 and the Z-score [2] was 0.08188.
In the case of `Br.Oc1ccc(C2CNCc3sccc32)cc1O` (centres unmarked) [SKF 89626], the “Raw Signal” value [1] is reported as 56262 and the Z-score [2] is reported as 0.04628.
`CNc1ncnc2c1ncn2[C@H]1C[C@H](OP(=O)(O)O)[C@@H](COP(=O)(O)O)O1` [MRS 2179] was tested, and the “Raw Signal” value [4] was 51414 and the Z-score [5] was -0.5006.
`Cc1nc2c([nH]1)c(=O)n(C)c(=O)n2Cc1ccco1` [Furafylline] was tested, and the “Raw Signal” value [1] was 55994 and the Z-score [2] was 0.1679.
`C[C@]12CCC(=O)C=C1CC[C@@H]1[C@@H]2[C@@H](O)C[C@@]2(C)[C@H]1CC[C@]2(O)C(=O)COC(=O)CCC(=O)[O-].[Na+]` [Hydrocortisone 21-hemisuccinate sodium] was tested, and the “Raw Signal” value [7] was 57689 and the Z-score [8] was 0.5122.
`CNCCC=C1c2ccccc2CCc2ccccc21` [Nortriptyline hydrochloride] was tested, and the “Raw Signal” value [1] was 54505 and the Z-score [2] was 0.01873.
For `COCCCC/C(=N\OCCN)c1ccc(C(F)(F)F)cc1` [Fluvoxamine maleate], the “Raw Signal” value [7] was 56948 and the Z-score [8] was 0.3617.
In the case of `Cc1ccc(O)c(N=Nc2ccccc2)n1` [SIB 1757], the “Raw Signal” value [4] is reported as 46352 and the Z-score [5] is reported as -1.879.
With `C1CNCCN1.COc1cc(C(O)CO)ccc1O.COc1cc(C(O)CO)ccc1O` (centres unmarked) [MHPG piperazine] the “Raw Signal” value [7] was 58694 and the Z-score [8] was 0.7163.
For `CC(C)NC[C@H](O)COc1ccc(CC(N)=O)cc1` [S(-)-Atenolol], the “Raw Signal” value [1] was 56960 and the Z-score [3] was -0.1679.
With `C[C@@]12C(=O)OC(=O)[C@]1(C)[C@H]1CC[C@@H]2O1` [Cantharidin] the “Raw Signal” value [7] was 61165 and the Z-score [8] was 0.5727.
`CCCC(CCC)C(=O)O` [Valproic acid sodium] was tested, and the “Raw Signal” value [4] was 64941 and the Z-score [6] was 1.772.
For `O=c1n(CCCN2CCN(c3cccc(Cl)c3)CC2)nc2ccccn12` [Trazodone hydrochloride], the “Raw Signal” value [7] was 58114 and the Z-score [8] was 0.4061.
For `Br.CCCN(CCC)C1CCc2ccc(O)cc2C1` (racemic) [(±)-7-Hydroxy-DPAT hydrobromide], the “Raw Signal” value [1] was 55055 and the Z-score [2] was -0.02275.
For `NC(=O)c1ncn([C@@H]2O[C@H](CO)[C@@H](O)[C@H]2O)n1` [Ribavirin], the “Raw Signal” value [1] was 54731 and the Z-score [3] was -0.2512.
`Br.CCSC(=N)N` [S-Ethylisothiourea hydrobromide] was tested, and the “Raw Signal” value [1] was 55596 and the Z-score [2] was 0.08712.
`O=C(O)C1=CCNCC1` [Isoguvacine hydrochloride] was tested, and the “Raw Signal” value [1] was 53600 and the Z-score [3] was -0.3182.
`Oc1cc(-c2ccccc2)nc2nc(Cl)ccc12` was tested, and the “Raw Signal” value [1] was 57826 and the Z-score [2] was -0.01534.
For `Cl.NOCC(=O)O.NOCC(=O)O`, the “Raw Signal” value [4] was 66377 and the Z-score [6] was 1.491.
In the case of `C[N+](C)(C)CC(=O)O` [Betaine hydrochloride], the “Raw Signal” value [7] is reported as 62144 and the Z-score [8] is reported as 0.7452.
With `CSc1ccc2c(c1)N(CCC1CCCCN1C)c1ccccc1S2` (centres unmarked) [Thioridazine hydrochloride] the “Raw Signal” value [1] was 57676 and the Z-score [2] was 0.321.
For `CCCCCCCCCCCCCCCCCCOCC(COP(=O)([O-])OCC[N+](C)(C)C)OC` (centres unmarked) [ET-18-OCH3], the “Raw Signal” value [4] was 51314 and the Z-score [5] was -0.7825.
In the case of `CC(=O)NCCc1ccc(O)c(O)c1.O` [N-Acetyldopamine monohydrate], the “Raw Signal” value [7] is reported as 60782 and the Z-score [8] is reported as 0.5053.
For `CC12CC3CC(C)(C1)CC(N)(C3)C2` [Memantine hydrochloride], the “Raw Signal” value [1] was 56169 and the Z-score [2] was 0.2983.
With `CCOC(=O)Nc1ccc(NCc2ccc(F)cc2)nc1N` [Flupirtine maleate] the “Raw Signal” value [1] was 54811 and the Z-score [2] was -0.07231.
In the case of `COc1cc(NS(C)(=O)=O)ccc1Nc1c2ccccc2nc2ccccc12` [Amsacrine hydrochloride], the “Raw Signal” value [1] is reported as 58568 and the Z-score [2] is reported as 0.1153.
For `CN1[C@@H]2CC[C@H]1C[C@@H](OC(c1ccccc1)c1ccccc1N)C2` (some centres unmarked) [Aminobenztropine], the “Raw Signal” value [1] was 58792 and the Z-score [2] was 0.1548.
For `CC(C)C[C@H](NC(=O)[C@@H](O)[C@H](N)Cc1ccccc1)C(=O)O` [Bestatin hydrochloride], the “Raw Signal” value [1] was 54023 and the Z-score [3] was -0.2323.
`COc1ccc(CCN(C)CCc2ccc(OC)c(OC)c2)cc1OC.Cl` [YS-035 hydrochloride] was tested, and the “Raw Signal” value [1] was 55463 and the Z-score [3] was -0.109.
`CC(C(=O)O)c1ccc(CC2CCCC2=O)cc1` (centres unmarked) [loxoprofen] was tested, and the “Raw Signal” value [4] was 49153 and the Z-score [5] was -0.8805.
`NC(CO)C(=O)NNCc1ccc(O)c(O)c1O` (centres unmarked) [Benserazide hydrochloride] was tested, and the “Raw Signal” value [4] was 50551 and the Z-score [5] was -1.297.
`CCCN1CCO[C@@H]2c3cc(O)ccc3OC[C@H]21.Cl` [S(+)-PD 128,907 hydrochloride] was tested, and the “Raw Signal” value [1] was 56406 and the Z-score [2] was 0.07425.
For `CC(C(=O)O)c1cccc(C(=O)c2ccccc2)c1` (centres unmarked) [Ketoprofen], the “Raw Signal” value [1] was 53403 and the Z-score [3] was -0.1664.
